Assay results as given in patent US10894788B2, “Inhibitors of cyclin-dependent kinases” (Kinnate Biopharma Inc., priority 2018, dated 2021).

target: CDK12 wt/CycK (Homo sapiens (Human), UniProt Q9NYV4); test: Radiometric protein kinase assay (33PanQinase Activity Assay), Assay Condition A (thiol containing conditions); format: biochemical; settings: not given
Method: Example 1—Assay Condition A (Thiol Containing Conditions)
Objective: The IC50 profile of test compounds was determined using three protein kinases.
Test compounds: The compounds were provided as pre-weighed powders in vials. The compounds were dissolved to 1×10^−02M by adding DMSO. 100 μl of each of the resulting stock solutions were transferred into column 2 of four 96 well “master plates”.
Prior to testing, the 1×10^−02M stock solutions in column 2 of the master plates were subjected to a serial, semi-logarithmic dilution using 100% DMSO as a solvent. […] Column 1 and 7 were filled with 100% DMSO as controls. Subsequently, 2×10 μl from each well of the serial diluted copy plates were aliquoted with a 96 channel pipettor into two identical sets of “compound dilution plates”.
In the process, 90 μl H2O were added to each well of a set of compound dilution plates. To minimize potential precipitation, the H2O was added to each plate only a few minutes before the transfer of the compound solutions into the assay plates. Each plate was shaken thoroughly, resulting in a “compound dilution plate/10% DMSO”.
For the assays, 5 μl solution from each well of the compound dilution plates/10% DMSO were transferred into the assay plates. The final volume of the assay was 50 μl. All compounds were tested at 10 final assay concentrations in the range from 1×10^−04M to 3×10^−09M, in singlicate. The final DMSO concentration in the reaction cocktails was 1% in all cases.
Recombinant protein kinases: All protein kinases were expressed in Sf9 insect cells or in E. coli as recombinant GST-fusion proteins or His-tagged proteins, either as full-length or enzymatically active fragments. All kinases were produced from human cDNAs and purified by either GSH-affinity chromatography or immobilized metal. Affinity tags were removed from a number of kinases during purification. The purity of the protein kinases was examined by SDS-PAGE/Coomassie staining, the identity was checked by mass spectroscopy.
Protein kinase assay: A radiometric protein kinase assay (^33PanQinase® Activity Assay) was used for measuring the kinase activity of the three protein kinases. All kinase assays were performed in 96-well FlashPlates™ from PerkinElmer (Boston, Mass., USA) in a 50 μl reaction volume. The reaction cocktail was pipetted in four steps in the following order: • 20 μl of assay buffer (standard buffer) • 5 μl of ATP solution (in H2O) • 5 μl of test compound (in 10% DMSO) • 20 μl enzyme/substrate mix
The following amounts of enzyme and substrate were used per well:
The reaction cocktails were incubated at 30° C. for 60 minutes. The reaction was stopped with 50 μl of 2% (v/v) H3PO4, plates were aspirated and washed two times with 200 μl 0.9% (w/v) NaCl. Incorporation of ^33Pi was determined with a microplate scintillation counter (Microbeta, Wallac). All assays were performed with a BeckmanCoulter/SAGIAN™ Core System.
Evaluation of raw data: The median value of the counts in column 1 (n=8) of each assay plate was defined as “low control”. This value reflects unspecific binding of radioactivity to the plate in the absence of a protein kinase but in the presence of the substrate. The median value of the counts in column 7 of each assay plate (n=8) was taken as the “high control”, i.e. full activity in the absence of any inhibitor. The difference between high and low control was taken as 100% activity.
As part of the data evaluation the low control value from a particular plate was subtracted from the high control value as well as from all 80 “compound values” of the corresponding plate. The residual activity (in %) for each well of a particular plate was calculated by using the following formula: Res. Activity (%)=100×[(cpm of compound−low control)/(high control−low control)]
The residual activities for each concentration and the compound IC50 values were calculated using Quattro Workflow V3.1.1 (Quattro Research GmbH, Munich, Germany).

Sequence of CDK12 wt/CycK (Q9NYV4 whole entry): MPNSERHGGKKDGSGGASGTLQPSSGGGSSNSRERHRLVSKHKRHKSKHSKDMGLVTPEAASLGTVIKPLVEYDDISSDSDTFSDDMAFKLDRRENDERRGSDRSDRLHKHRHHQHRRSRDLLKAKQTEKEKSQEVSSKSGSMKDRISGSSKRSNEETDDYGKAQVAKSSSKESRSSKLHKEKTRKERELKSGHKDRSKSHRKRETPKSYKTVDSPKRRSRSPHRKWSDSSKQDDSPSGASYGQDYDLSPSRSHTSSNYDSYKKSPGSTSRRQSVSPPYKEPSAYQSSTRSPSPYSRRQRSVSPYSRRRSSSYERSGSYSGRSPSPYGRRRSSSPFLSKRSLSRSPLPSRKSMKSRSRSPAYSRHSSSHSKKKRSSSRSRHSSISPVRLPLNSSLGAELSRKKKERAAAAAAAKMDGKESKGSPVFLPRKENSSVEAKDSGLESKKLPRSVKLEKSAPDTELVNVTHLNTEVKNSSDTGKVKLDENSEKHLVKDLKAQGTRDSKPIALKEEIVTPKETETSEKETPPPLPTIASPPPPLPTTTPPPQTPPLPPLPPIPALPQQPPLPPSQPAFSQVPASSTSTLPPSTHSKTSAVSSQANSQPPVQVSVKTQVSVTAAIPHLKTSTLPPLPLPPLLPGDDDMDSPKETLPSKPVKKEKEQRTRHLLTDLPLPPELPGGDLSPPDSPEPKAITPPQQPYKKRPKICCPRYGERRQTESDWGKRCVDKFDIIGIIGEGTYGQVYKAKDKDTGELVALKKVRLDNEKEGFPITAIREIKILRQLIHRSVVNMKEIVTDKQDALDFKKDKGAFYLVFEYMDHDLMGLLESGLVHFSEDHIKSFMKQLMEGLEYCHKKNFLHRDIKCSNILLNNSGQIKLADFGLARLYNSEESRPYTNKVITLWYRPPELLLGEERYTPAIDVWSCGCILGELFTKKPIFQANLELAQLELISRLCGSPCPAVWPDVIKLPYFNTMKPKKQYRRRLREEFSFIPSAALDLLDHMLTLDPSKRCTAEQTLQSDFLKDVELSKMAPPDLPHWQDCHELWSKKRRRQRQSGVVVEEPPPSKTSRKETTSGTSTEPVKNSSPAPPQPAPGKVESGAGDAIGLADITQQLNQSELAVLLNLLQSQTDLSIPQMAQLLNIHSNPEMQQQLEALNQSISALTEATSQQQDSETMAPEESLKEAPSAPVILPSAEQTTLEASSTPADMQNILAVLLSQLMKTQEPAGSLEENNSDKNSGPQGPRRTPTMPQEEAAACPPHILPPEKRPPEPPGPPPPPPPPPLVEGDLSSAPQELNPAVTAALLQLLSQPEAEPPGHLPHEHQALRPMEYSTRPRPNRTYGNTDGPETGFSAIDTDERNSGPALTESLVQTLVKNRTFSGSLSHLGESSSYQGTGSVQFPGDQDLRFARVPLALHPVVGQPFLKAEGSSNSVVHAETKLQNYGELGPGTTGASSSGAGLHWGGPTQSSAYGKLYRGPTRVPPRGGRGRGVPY
Sequence of CDK12 wt/CycK (O75909 whole entry partner): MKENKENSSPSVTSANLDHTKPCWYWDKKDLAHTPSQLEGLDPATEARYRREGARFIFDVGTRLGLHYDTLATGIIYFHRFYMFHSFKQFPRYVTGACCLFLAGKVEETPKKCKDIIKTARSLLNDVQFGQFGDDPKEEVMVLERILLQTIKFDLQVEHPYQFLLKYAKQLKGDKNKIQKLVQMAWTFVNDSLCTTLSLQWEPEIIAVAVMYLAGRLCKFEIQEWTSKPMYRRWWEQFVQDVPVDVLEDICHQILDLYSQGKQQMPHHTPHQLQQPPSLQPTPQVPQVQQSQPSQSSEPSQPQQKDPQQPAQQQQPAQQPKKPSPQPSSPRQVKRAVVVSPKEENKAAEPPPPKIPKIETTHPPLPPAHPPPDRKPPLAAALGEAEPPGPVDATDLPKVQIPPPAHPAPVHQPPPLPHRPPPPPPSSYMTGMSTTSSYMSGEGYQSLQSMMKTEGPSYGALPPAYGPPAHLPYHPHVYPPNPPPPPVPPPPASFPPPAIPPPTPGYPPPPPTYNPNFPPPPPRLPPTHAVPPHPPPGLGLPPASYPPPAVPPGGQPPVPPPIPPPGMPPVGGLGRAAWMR

First: C=CC(=O)Nc1ccc(C(=O)N2CC[C@@H](Nc3ncc(Cl)c(OCC)n3)C2)cc1OCCN(C)C [Example 144, (R)—N-(4-(3-((5-chloro-4-ethoxypyrimidin-2-yl)amino)pyrrolidine-1-carbonyl)-2-(2-(dimethylamino)ethoxy)phenyl)acrylamide]
Second: C=CC(=O)Nc1ccc(C(=O)N2CC[C@@H](Nc3ncc(C#N)cn3)C2)cc1OCCN(C)C [Example 166, (R)—N-(4-(3-((5-cyanopyrimidin-2-yl)amino)pyrrolidine-1-carbonyl)-2-(2-(dimethylamino)ethoxy)phenyl)acrylamide]
The IC50 of the first is lower: < 100 nM for the first, 100 to 1000 nM for the second. The first is the more potent here.

Compared with `C=CC(=O)Nc1ccc(C(=O)N2CC[C@@H](Nc3ccc(C#N)cn3)C2)cc1` [Example 147, (R)—N-(4-(3-((5-cyanopyridin-2-yl)amino)pyrrolidine-1-carbonyl)phenyl)acrylamide], `[2H]C([2H])([2H])Oc1nc(N[C@@H]2CCN(C(=O)c3ccc(NC(=O)C#C)cc3)C2)ncc1Cl` [Example 154, (R)—N-(4-(3-((5-chloro-4-(trideuteromethoxy)pyrimidin-2-yl)amino)pyrrolidine-1-carbonyl)phenyl)propiolamide] is lower in IC50: 100 to 1000 nM for the first, < 100 nM for the second. The second is the more potent here.

With `C=CC(=O)Nc1ccc(C(=O)N2CC[C@@H](Nc3ncc(Br)cn3)C2)cc1OCCN1CCOCC1` [Example 156, (R)—N-(4-(3-((5-bromopyrimidin-2-yl)amino)pyrrolidine-1-carbonyl)-2-(2-morpholinoethoxy)phenyl)acrylamide] the IC50 was 100 to 1000 nM.

same assay, conditions: thiol containing conditions (1.2 mM DTT), ATP 0.3 μM; read-out: CDK12 IC50 Condition A

First: COc1nc(N[C@@H]2CCN(C(=O)c3ccc(NC(=O)C4CO4)cc3)C2)ncc1Cl (stereo partly drawn) [Example 142, N-(4-((R)-3-((5-chloro-4-methoxypyrimidin-2-yl)amino)pyrrolidine-1-carbonyl)phenyl)oxirane-2-carboxamide]
Second: CC#CC(=O)Nc1ccc(C(=O)N2CC[C@@H](Nc3ncc(Cl)c(OC)n3)C2)cc1 [Example 151, (R)—N-(4-(3-((5-chloro-4-methoxypyrimidin-2-yl)amino)pyrrolidine-1-carbonyl)phenyl)but-2-ynamide]
The IC50 of the first is higher: 1000 to 10000 nM for the first, < 100 nM for the second. The second is the more potent here.

`C=CC(=O)Nc1ccc(C(=O)N2CC[C@@H](Nc3ncc(Cl)c(OCC)n3)C2)cc1OC1CCOC1` (stereo partly drawn) [Example 143, N-(4-((R)-3-((5-chloro-4-ethoxypyrimidin-2-yl)amino)pyrrolidine-1-carbonyl)-2-((tetrahydrofuran-3-yl)oxy)phenyl)acrylamide] and `C=CC(=O)Nc1ccc(C(=O)N2CC[C@@H](Nc3ncc(Cl)c(OCC)n3)C2)nc1` [Example 152, (R)—N-(6-(3-((5-chloro-4-ethoxypyrimidin-2-yl)amino)pyrrolidine-1-carbonyl)pyridin-3-yl)acrylamide] cannot be ordered by IC50: < 100 nM for the first, < 100 nM for the second.

Compared with `C=CC(=O)Nc1ccc(C(=O)N2CC[C@@H](Nc3ncc(C#N)cn3)C2)cc1` [Example 148, (R)—N-(4-(3-((5-cyanopyrimidin-2-yl)amino)pyrrolidine-1-carbonyl)phenyl)acrylamide], `C=CC(=O)Nc1ccc(C(=O)N2CC[C@H](Nc3ncc(Cl)cn3)C2)cc1` [Example 155, (S)—N-(4-(3-((5-chloropyrimidin-2-yl)amino)pyrrolidine-1-carbonyl)phenyl)acrylamide] is higher in IC50: 100 to 1000 nM for the first, 10000 to 30000 nM for the second.

`C/C=C/C(=O)Nc1ccc(C(=O)N2CC[C@@H](Nc3ncc(Cl)c(OC)n3)C2)nc1` [Example 150, (R,E)-N-(6-(3-((5-chloro-4-methoxypyrimidin-2-yl)amino)pyrrolidine-1-carbonyl)pyridin-3-yl)but-2-enamide] and `COc1nc(N[C@@H]2CCN(C(=O)c3ccc(NC(=O)/C=C/CN4CC[C@@H](F)C4)cn3)C2)ncc1Cl` [Example 170, (E)-N-(6-((R)-3-((5-chloro-4-methoxypyrimidin-2-yl)amino)pyrrolidine-1-carbonyl)pyridin-3-yl)-4-((R)-3-fluoropyrrolidin-1-yl)but-2-enamide] fall in the same range of IC50: 100 to 1000 nM for the first, 100 to 1000 nM for the second.

First: C=CC(=O)Nc1ccc(C(=O)N2CC[C@@H](Nc3ncc(Cl)c(OCCOCC)n3)C2)cc1 [Example 153, (R)—N-(4-(3-((5-chloro-4-(2-ethoxyethoxy)pyrimidin-2-yl)amino)pyrrolidine-1-carbonyl)phenyl)acrylamide]
Second: C=CC(=O)Nc1ccc(C(=O)N2CC[C@@H](Nc3ncc(C#N)c(OC)n3)C2)cc1 [Example 160, (R)—N-(4-(3-((5-cyano-4-methoxypyrimidin-2-yl)amino)pyrrolidine-1-carbonyl)phenyl)acrylamide]
The IC50 of the first is lower: 100 to 1000 nM for the first, 10000 to 30000 nM for the second. The first is the more potent here.

First: C=CC(=O)Nc1ccc(C(=O)N2CC[C@@H](Nc3ncc(Br)cn3)C2)cc1N1CCC(N(C)C)CC1 [Example 158, (R)—N-(4-(3-((5-bromopyrimidin-2-yl)amino)pyrrolidine-1-carbonyl)-2-(4-(dimethylamino)piperidin-1-yl)phenyl)acrylamide]
Second: C=CC(=O)Nc1ccc(C(=O)N2CC[C@@H](Nc3ncc(Br)cn3)C2)cc1O[C@@H]1CCN(C)C1 [Example 163, N-(4-((R)-3-((5-bromopyrimidin-2-yl)amino)pyrrolidine-1-carbonyl)-2-(((R)-1-methylpyrrolidin-3-yl)oxy)phenyl)acrylamide]
The IC50 of the first is higher: 100 to 1000 nM for the first, < 100 nM for the second.

Compared with `C=CC(=O)Nc1ccc(C(=O)N2CC[C@@H](Nc3ncc(Br)cn3)C2)cc1N(C)CCN(C)C` [Example 159, (R)—N-(4-(3-((5-bromopyrimidin-2-yl)amino)pyrrolidine-1-carbonyl)-2-((2-(dimethylamino)ethyl)(methyl)amino)phenyl)acrylamide], `C=CC(=O)Nc1ccc(C(=O)N2CC[C@@H](Nc3ncc(Br)cn3)C2)cc1O[C@H]1CCN(C)C1` [Example 164, N-(4-((R)-3-((5-bromopyrimidin-2-yl)amino)pyrrolidine-1-carbonyl)-2-(((S)-1-methylpyrrolidin-3-yl)oxy)phenyl)acrylamide] is lower in IC50: 1000 to 10000 nM for the first, < 100 nM for the second. The second is the more potent here.

Compared with `C=CC(=O)Nc1ccc(C(=O)N2CC[C@@H](Nc3ncc(Br)cn3)C2)cc1OCCN1CCC(F)(F)CC1` [Example 162, (R)—N-(4-(3-((5-bromopyrimidin-2-yl)amino)pyrrolidine-1-carbonyl)-2-(2-(4,4-difluoropiperidin-1-yl)ethoxy)phenyl)acrylamide], `C=CC(=O)Nc1ccc(C(=O)N2CC[C@@H](Nc3ncc(C#N)c(OC)n3)C2)cc1OCCN(C)C` [Example 165, (R)—N-(4-(3-((5-cyano-4-methoxypyrimidin-2-yl)amino)pyrrolidine-1-carbonyl)-2-(2-(dimethylamino)ethoxy)phenyl)acrylamide] is lower in IC50: 100 to 1000 nM for the first, < 100 nM for the second. The second is the more potent here.

`COc1nc(N[C@@H]2CCN(C(=O)c3ccc(NC(=O)/C=C/CN4CC[C@@H](F)C4)cc3)C2)ncc1Cl` [Example 167, (E)-N-(4-((R)-3-((5-chloro-4-methoxypyrimidin-2-yl)amino)pyrrolidine-1-carbonyl)phenyl)-4-((R)-3-fluoropyrrolidin-1-yl)but-2-enamide] and `COc1nc(N[C@@H]2CCN(C(=O)c3ccc(NC(=O)/C=C/CN4CC[C@H](F)C4)cc3)C2)ncc1Cl` [Example 169, (E)-N-(4-((R)-3-((5-chloro-4-methoxypyrimidin-2-yl)amino)pyrrolidine-1-carbonyl)phenyl)-4-((S)-3-fluoropyrrolidin-1-yl)but-2-enamide] cannot be ordered by IC50: < 100 nM for the first, < 100 nM for the second.

`COc1nc(N[C@@H]2CCN(C(=O)c3ccc(NC(=O)/C=C/CN4CCOCC4)cc3)C2)ncc1Cl` [Example 168, (R,E)-N-(4-(3-((5-chloro-4-methoxypyrimidin-2-yl)amino)pyrrolidine-1-carbonyl)phenyl)-4-morpholinobut-2-enamide] showed an IC50 of 100 to 1000 nM.
